# Values quoted from earlier work in US20170119742A1, “MEDICAMENT FOR PREVENTING AND/OR TREATING STRESS DISEASES” (ONO PHARMACEUTICAL CO., LTD., priority 2014, published 2017).
# Molecular target: brain NK1 receptors (Homo sapiens, UniProt P25103)
# Conditions: Non-Patent Document 5; cited from earlier work
# brain NK1 receptors, sequence (P25103 whole entry): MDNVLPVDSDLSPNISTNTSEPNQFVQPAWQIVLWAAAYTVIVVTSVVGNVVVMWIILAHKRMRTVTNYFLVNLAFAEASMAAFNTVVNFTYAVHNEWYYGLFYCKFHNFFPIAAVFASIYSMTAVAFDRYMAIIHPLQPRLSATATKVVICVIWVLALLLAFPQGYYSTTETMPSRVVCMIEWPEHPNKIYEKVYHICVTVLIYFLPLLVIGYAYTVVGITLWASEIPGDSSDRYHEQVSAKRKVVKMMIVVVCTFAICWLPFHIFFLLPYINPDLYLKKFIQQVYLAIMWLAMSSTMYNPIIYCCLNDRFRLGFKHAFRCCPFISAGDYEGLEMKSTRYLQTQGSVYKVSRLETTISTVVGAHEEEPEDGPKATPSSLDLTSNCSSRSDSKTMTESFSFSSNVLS
smiles,measurement,value
C[C@@H](O[C@H]1OCCN(Cc2n[nH]c(=O)[nH]2)[C@H]1c1ccc(F)cc1)c1cc(C(F)(F)F)cc(C(F)(F)F)c1 [aprepitant],brain NK1 receptor occupancy necessary for expressing the efficacy,≥ 90%
same,plasma concentration at 90% or more brain NK1 receptor occupancy,≥ 100 ng/mL
